Results: patent publication US8648201B2, “Aminopyridine derivatives for treating tumors and inflammatory diseases” (MERCK PATENT GmbH, priority 2009, dated 2014)

Key:
PDK1 [1] = target: T1, PDK1 (Homo sapiens, UniProt O15530); test: Test for the inhibition of PDK1 (flashplate, 33P-ATP); format: biochemical; details: enzyme
T1 construct: His6 (N)
T1 sequence (O15530 51-556 limits assumed): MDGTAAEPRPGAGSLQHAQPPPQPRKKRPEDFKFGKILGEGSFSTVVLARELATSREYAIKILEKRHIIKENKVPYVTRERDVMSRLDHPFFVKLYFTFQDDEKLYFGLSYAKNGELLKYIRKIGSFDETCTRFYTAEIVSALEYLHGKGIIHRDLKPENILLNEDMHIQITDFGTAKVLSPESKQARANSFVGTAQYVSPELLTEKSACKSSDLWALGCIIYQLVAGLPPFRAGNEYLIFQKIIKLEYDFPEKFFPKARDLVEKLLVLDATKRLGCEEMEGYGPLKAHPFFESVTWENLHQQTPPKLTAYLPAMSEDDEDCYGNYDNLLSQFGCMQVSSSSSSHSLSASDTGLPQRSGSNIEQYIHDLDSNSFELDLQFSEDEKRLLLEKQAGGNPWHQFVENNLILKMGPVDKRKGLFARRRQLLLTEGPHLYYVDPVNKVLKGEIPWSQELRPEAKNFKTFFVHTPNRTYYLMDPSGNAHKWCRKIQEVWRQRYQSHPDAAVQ
Procedure: The experimental batches are carried out in a flashplate system with 384 wells/microtitration plate.
In each case, the PDK1 sample His6-PDK1(1-50)(3.4 nM), the PDK1 substrate biotin-bA-bA-[…] (400 nM), 4 μM ATP (with 0.2 μCi of ^33P-ATP/well) and the test substance in 50 μl of conventional experimental solution per well are incubated at 30° C. for 60 min. The test substances are employed in corresponding concentrations (if desired in a dilution series). The control is carried out without test substance. The reaction is stopped using standard methods and washed. The activity of the kinase is measured via the incorporated radioactivity in top count. In order to determine the non-specific kinase reaction (blank value), the experimental batches are carried out in the presence of 100 nM staurosporin.
The radioactivity (decompositions per minute) of the blank value (no use of test substance in the presence of staurosporin) is subtracted from all other radioactivity values. The controls (kinase activity without test substance) are set equal to 100 percent and all other radioactivity values (after subtracting the blank value) are expressed set in relation thereto (for example in % of the control).
IC50 values (50% inhibition) are determined with the aid of statistics programmes, such as, for example, RS1.

PDK1 [2] = target: T2, PDK1 (Homo sapiens, UniProt O15530); test: IC50 PDK1 (cell); format: cell-based
T2 construct: endogenous in cells; host or cells: commercially available colon carcinoma, ovary, prostate or breast cell lines (none named)
T2 sequence (O15530 1-556): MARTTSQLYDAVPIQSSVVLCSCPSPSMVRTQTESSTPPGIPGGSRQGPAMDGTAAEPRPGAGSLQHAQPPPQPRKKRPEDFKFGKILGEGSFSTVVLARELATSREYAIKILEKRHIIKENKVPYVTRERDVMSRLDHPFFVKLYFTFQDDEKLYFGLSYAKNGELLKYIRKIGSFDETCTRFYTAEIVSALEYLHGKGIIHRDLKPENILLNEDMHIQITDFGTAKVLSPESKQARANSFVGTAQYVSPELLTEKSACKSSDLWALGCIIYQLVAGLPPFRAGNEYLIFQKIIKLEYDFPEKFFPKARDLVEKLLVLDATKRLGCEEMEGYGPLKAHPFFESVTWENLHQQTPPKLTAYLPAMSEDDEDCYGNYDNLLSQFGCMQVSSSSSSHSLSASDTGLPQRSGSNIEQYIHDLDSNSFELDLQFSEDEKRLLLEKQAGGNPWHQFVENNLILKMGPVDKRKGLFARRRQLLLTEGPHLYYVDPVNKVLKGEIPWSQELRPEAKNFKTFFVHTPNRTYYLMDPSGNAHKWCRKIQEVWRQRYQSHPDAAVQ
Procedure: The cells are sown in a suitable cell density in microtitre plates (96-well format) and the test substances are added in the form of a concentration series. After four further days of cultivation in serum-containing medium, the tumour cell proliferation/tumour cell vitality can be determined by means of an Alamar Blue test system. A defined number of cells (for example 2000 cells) per culture/well in a volume of 180 μl of culture medium are sown in microtitre plates (96 well cell-culture plates) using a multichannel pipette. The cells are subsequently cultivated in a CO2 incubator (37° C. and 10% CO2). The test substances are dissolved, for example, in DMSO and subsequently employed in corresponding concentration (if desired in a dilution series) in the cell culture medium. The dilution steps can be adapted depending on the efficiency of the active ingredients and the desired spread of the concentrations. Cell culture medium is added to the test substances in corresponding concentrations. The addition of the test substances to the cells can take place on the same day as the sowing of the cells. To this end, in each case 20 μl of substance solution from the predilution plate are added to the cultures/wells. The cells are cultivated for a further 4 days at 37° Celsius and 10% CO2. In each case, 20 μl of Alamar Blue reagent are added per well, and the microtitre plates are incubated, for example, for a further seven hours in a CO2 incubator (at 37° C. and 10% CO2). The plates are measured in a reader with a fluorescence filter at a wavelength of 540 nm. The plates can be shaken gently immediately before the measurement. The absorbance value of the medium control (no cells and test substances used) is subtracted from all other absorbance values. The controls (cells without test substance) are set equal to 100 percent, and all other absorbance values are set in relation thereto (for example in % of control): Calculation: 100*(value with cells and test substance−value of medium control)/(value with cells−value of medium control) IC50 values (50% inhibition) are determined with the aid of statistics programs, such as, for example, RS1.

IRAK-4 [3] = target: T3, IRAK-4 (Homo sapiens, UniProt Q9NWZ3); test: IC50 IRAK-4 (cell); format: cell-based
T3 construct: His6 (N); Dr.Jaekel
T3 sequence (Q9NWZ3 1-460): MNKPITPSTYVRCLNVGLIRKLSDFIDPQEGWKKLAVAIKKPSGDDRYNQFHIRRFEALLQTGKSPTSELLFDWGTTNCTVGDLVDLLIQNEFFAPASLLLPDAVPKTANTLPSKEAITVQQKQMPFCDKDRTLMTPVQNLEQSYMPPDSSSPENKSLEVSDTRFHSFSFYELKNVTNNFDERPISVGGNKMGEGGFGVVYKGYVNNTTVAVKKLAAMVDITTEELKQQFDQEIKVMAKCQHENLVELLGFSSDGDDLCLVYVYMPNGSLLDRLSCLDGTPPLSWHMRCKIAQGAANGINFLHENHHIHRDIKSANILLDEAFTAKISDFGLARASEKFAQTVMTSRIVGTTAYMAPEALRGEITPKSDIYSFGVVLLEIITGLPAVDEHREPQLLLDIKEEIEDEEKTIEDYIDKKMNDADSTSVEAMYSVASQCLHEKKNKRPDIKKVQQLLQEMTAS

IRAK-1 = target: T4, IRAK-1 (Homo sapiens, UniProt P51617); test: Test for the inhibition of IRAK1 (autophosphorylation, flashplate); format: biochemical; details: enzyme
T4 construct: His6 (N); Dr.Jaekel Pool B, 232Y08C1.IRK
T4 sequence (P51617 whole entry, species assumed): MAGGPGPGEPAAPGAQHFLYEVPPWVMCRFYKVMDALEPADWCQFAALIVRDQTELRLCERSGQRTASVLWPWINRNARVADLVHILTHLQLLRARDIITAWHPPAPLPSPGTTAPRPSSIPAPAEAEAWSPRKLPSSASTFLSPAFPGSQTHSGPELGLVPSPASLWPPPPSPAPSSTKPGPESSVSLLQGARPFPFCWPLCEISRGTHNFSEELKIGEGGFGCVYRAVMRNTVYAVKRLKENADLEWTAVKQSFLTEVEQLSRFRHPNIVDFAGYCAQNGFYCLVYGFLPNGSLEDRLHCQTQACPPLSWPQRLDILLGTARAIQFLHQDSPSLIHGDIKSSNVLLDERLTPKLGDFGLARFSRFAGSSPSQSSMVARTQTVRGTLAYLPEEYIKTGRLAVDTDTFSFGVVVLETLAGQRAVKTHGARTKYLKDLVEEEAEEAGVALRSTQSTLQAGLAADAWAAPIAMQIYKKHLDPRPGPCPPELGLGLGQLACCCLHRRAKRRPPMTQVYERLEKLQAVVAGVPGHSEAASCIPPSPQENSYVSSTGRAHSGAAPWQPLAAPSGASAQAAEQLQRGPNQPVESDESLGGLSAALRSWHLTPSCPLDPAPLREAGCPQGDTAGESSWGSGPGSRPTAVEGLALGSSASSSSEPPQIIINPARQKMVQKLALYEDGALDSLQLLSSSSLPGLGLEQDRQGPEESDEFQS
Procedure: (§1) The experimental batches are carried out in a flashplate system with 384 wells/microtitre plate. In each case, in order to investigate the inhibition of the autophosphorylation activity of IRAK1, the IRAK1 sample His6-IRAK1 (5.1 nM), 1 μM ATP (with 0.25 μCi of ^33P-ATP/well) and the test substance in 50 μl of conventional experimental solution per well are incubated at 22° C. for 180 min. The test substances are employed in corresponding concentrations (if desired in a dilution series). The control is carried out without test substance. The reaction is stopped using standard methods and washed. The activity of the kinase is measured via the incorporated radioactivity in top count. In order to determine the non-specific kinase reaction (blank value), the experimental batches are carried out in the presence of 1 μM staurosporin. The radioactivity (decompositions per minute) of the blank value (no use of test substance in the presence of 1 μM staurosporin) is subtracted from all other radioactivity values. The controls (kinase activity without test substance) are set equal to 100 percent and all other radioactivity values (after subtracting the blank value) are expressed set in relation thereto (for example in % of the control). IC50 values (50% inhibition) are determined with the aid of statistics programs, such as, for example, RS1.

IRAK-4 [4] = target: T3, IRAK-4; test: Test for the inhibition of IRAK4 (flashplate, 33P-ATP); format: biochemical; details: enzyme
Procedure: as §1, with “case,” for “case, in order to investigate”, “the IRAK4 sample His6-IRAK4 (7.3 nM),” for “the inhibition of”, “the biotinylated substrate peptide STK substrate 1-biotin (Cisbio Bioassays, France) (300” for “the autophosphorylation activity of IRAK1, the IRAK1 sample His6-IRAK1 (5.1”, “nM), 10” for “nM), 1”

| SMILES | IC50 (PDK1 [1]) | IC50 (PDK1 [2]) | IC50 (IRAK-4 [3]) | IC50 (IRAK-1) | IC50 (IRAK-4 [4]) |
| --- | --- | --- | --- | --- | --- |
| COc1ccc2nc(-c3cc(-c4cnn(C(C)C)c4)cnc3N)[nH]c2c1 [Compound A107, 5-(1-Isopropyl-1H-pyrazol-4-yl)-3-(6-methoxy-1H-benzimidazol-2-yl)pyridin-2-ylamine] |  |  | 100 to 10000 nM | 1 to 100 nM | 1 to 100 nM |
| CC1CC(=O)NN=C1c1ccc2nc(-c3cc(-c4cnn(CCO)c4)cnc3N)[nH]c2c1 (stereo not drawn) [Compound A29, 6-(2-{2-amino-5-[1-(2-hydroxyethyl)-1H-pyrazol-4-yl]pyridin-3-yl}-3H-benzimidazol-5-yl)-5-methyl-4,5-dihydro-2H-pyridazin-3-one] | 1 to 100 nM | > 10000 nM |  |  |  |
| CC1CC(=O)NN=C1c1ccc2[nH]c(-c3cc(-c4cnn(CCN5CCOCC5)c4)cnc3N)nc2c1 (stereo not drawn) [Compound A9, 6-(2-{2-amino-5-[1-(2-morpholin-4-ylethyl)-1H-pyrazol-4-yl]-pyridin-3-yl}-1H-benzimidazol-5-yl)-5-methyl-4,5-dihydro-2H-pyridazin-3-one] | 1 to 100 nM | 100 to 10000 nM |  |  |  |
| CCC1CC(=O)NN=C1c1ccc2[nH]c(-c3cc(-c4cnn(C)c4)cnc3N)nc2c1 (stereo not drawn) [Compound A4, 6-{2-[2-Amino-5-(1-methyl-1H-pyrazol-4-yl)-pyridin-3-yl]-1H-benzimidazol-5-yl}-5-ethyl-4,5-dihydro-2H-pyridazin-3-one] | 1 to 100 nM | 100 to 10000 nM |  |  |  |
| CCCn1cc(-c2cnc(N)c(-c3nc4ccccc4[nH]3)c2)cn1 [Compound A44] |  |  | 100 to 10000 nM | 100 to 10000 nM | 100 to 10000 nM |

The remaining lines, values ahead:

| IC50 (PDK1 [1]) | IC50 (PDK1 [2]) | IC50 (IRAK-4 [3]) | IC50 (IRAK-1) | IC50 (IRAK-4 [4]) | SMILES |
| --- | --- | --- | --- | --- | --- |
| 1 to 100 nM | > 10000 nM |  |  |  | COc1ccc2nc(-c3cc(-c4cnn(C5CCN(C)CC5)c4)cnc3N)[nH]c2c1 [Compound A106, 3-(6-Methoxy-1H-benzimidazol-2-yl)-5-[1-(1-methyl-piperidin-4-yl)-1H-pyrazol-4-yl]pyridin-2-ylamine] |
| 1 to 100 nM | 100 to 10000 nM |  |  |  | C[C@@H]1CC(=O)NN=C1c1ccc2nc(-c3cc(-c4cnn(C)c4)cnc3N)[nH]c2c1 (single isomer, unassigned) [Compound A2] |
| 1 to 100 nM | > 10000 nM |  |  |  | C[C@H]1CC(=O)NN=C1c1ccc2nc(-c3cc(-c4cnn(C)c4)cnc3N)[nH]c2c1 (single isomer, unassigned) [Compound A3] |
